Measured values published in ChEMBL document CHEMBL5335843, “Application of tobramycin benzyl ether as an antibiotic adjuvant capable of sensitizing multidrug-resistant Gram-negative bacteria to rifampicin” (2024).
In brackets after ≈: the same amount, converted by molar mass. Activity calls are given as the source filed them. No cut-off for these calls is given here. Positions of bridges follow the written chain, without caps; N, C: chain ends. Non-standard residues stand in square brackets, D forms with d. Residues, ends and D or L forms follow the SMILES beside them. *: point of attachment. X1 = CC[C@H](C)CCCCC(=O)*; dDab = NCC[C@@H](N)C(=O)O; Dab = NCC[C@H](N)C(=O)O

Assays:
Format in all cases: functional
Enterococcus faecium [1] = test: Antibiotic adjuvant activity against Enterococcus faecium 128149 assessed as inhibition of bacterial growth incubated for 18 hrs in presence of rifampicin by two fold broth microdilution checkerboard assay
Staphylococcus aureus [2] = test: Antibiotic adjuvant activity against methicilin-resistant Staphylococcus aureus assessed as inhibition of bacterial growth incubated for 18 hrs in presence of rifampicin by two fold broth microdilution checkerboard assay
Enterococcus faecium [3] = test: Antibiotic adjuvant activity against Enterococcus faecium 114278 assessed as inhibition of bacterial growth incubated for 18 hrs in presence of rifampicin by two fold broth microdilution checkerboard assay
Pseudomonas aeruginosa [4] = test: Antibacterial activity against multi-drug resistant Pseudomonas aeruginosa clinical isolate PA264 assessed as inhibition of bacterial growth incubated for 18 hrs by two fold broth microdilution assay
Escherichia coli [5] = test: Antibacterial activity against multi-drug resistant Escherichia coli clinical isolate EC94474 assessed as inhibition of bacterial growth incubated for 18 hrs by two fold broth microdilution assay
Escherichia coli [6] = test: Antibacterial activity against multi-drug resistant Escherichia coli clinical isolate EC107115 assessed as inhibition of bacterial growth incubated for 18 hrs by two fold broth microdilution assay
Pseudomonas aeruginosa [7] = test: Antibacterial activity against multi-drug resistant Pseudomonas aeruginosa clinical isolate PA259 assessed as inhibition of bacterial growth incubated for 18 hrs by two fold broth microdilution assay
Pseudomonas aeruginosa [8] = test: Antibacterial activity against multi-drug resistant Pseudomonas aeruginosa clinical isolate PA262 assessed as inhibition of bacterial growth incubated for 18 hrs by two fold broth microdilution assay
Pseudomonas aeruginosa [9] = test: Antibacterial activity against multi-drug resistant Pseudomonas aeruginosa clinical isolate PA101243 assessed as inhibition of bacterial growth incubated for 18 hrs by two fold broth microdilution assay
Pseudomonas aeruginosa [10] = test: Antibacterial activity against multi-drug resistant Pseudomonas aeruginosa clinical isolate PA114228 assessed as inhibition of bacterial growth incubated for 18 hrs by two fold broth microdilution assay
Acinetobacter baumannii [11] = test: Antibiotic adjuvant activity against Acinetobacter baumannii ATCC 17978 assessed as fold potentiation incubated for 18 hrs in presence of Rifampicin by two fold broth microdilution checkerboard assay
Pseudomonas aeruginosa [12] = test: Antibiotic adjuvant activity against Pseudomonas aeruginosa PAO1 assessed as fold potentiation incubated for 18 hrs in presence of Rifampicin by two fold broth microdilution checkerboard assay
Acinetobacter baumannii [13] = test: Antibacterial activity against Acinetobacter baumannii ATCC 17978 assessed as inhibition of bacterial growth incubated for 18 hrs by two fold broth microdilution assay
Acinetobacter baumannii [14] = test: Antibiotic adjuvant activity against Acinetobacter baumannii ATCC 17978 assessed as rifampicin MIC incubated for 18 hrs in presence of Rifampicin by two fold broth microdilution checkerboard assay
Escherichia coli [15] = test: Antibiotic adjuvant activity against Escherichia coli ATCC 25922 assessed as rifampicin MIC incubated for 18 hrs in presence of Rifampicin by two fold broth microdilution checkerboard assay
Pseudomonas aeruginosa [16] = test: Antibacterial activity against Pseudomonas aeruginosa PAO1 assessed as inhibition of bacterial growth incubated for 18 hrs by two fold broth microdilution assay
Escherichia coli [17] = test: Antibacterial activity against Escherichia coli ATCC 25922 assessed as inhibition of bacterial growth incubated for 18 hrs by two fold broth microdilution assay
Acinetobacter baumannii [18] = test: Antibacterial activity against multi-drug resistant Acinetobacter baumannii clinical isolate LAC-4 assessed as inhibition of bacterial growth incubated for 18 hrs by two fold broth microdilution assay
Acinetobacter baumannii [19] = test: Antibacterial activity against multi-drug resistant Acinetobacter baumannii clinical isolate 92247 assessed as inhibition of bacterial growth incubated for 18 hrs by two fold broth microdilution assay
Pseudomonas aeruginosa [20] = test: Antibacterial activity against multi-drug resistant Pseudomonas aeruginosa clinical isolate 114228 assessed as inhibition of bacterial growth incubated for 18 hrs by two fold broth microdilution assay
Acinetobacter baumannii [21] = test: Antibacterial activity against multi-drug resistant Acinetobacter baumannii clinical isolate AB031 assessed as inhibition of bacterial growth incubated for 18 hrs by two fold broth microdilution assay
Enterococcus faecium [22] = test: Antibacterial activity against Enterococcus faecium 114278 assessed as inhibition of bacterial growth incubated for 18 hrs by two fold broth microdilution assay
Acinetobacter baumannii [23] = test: Antibacterial activity against multi-drug resistant Acinetobacter baumannii clinical isolate AB027 assessed as inhibition of bacterial growth incubated for 18 hrs by two fold broth microdilution assay
Staphylococcus aureus [24] = test: Antibacterial activity against methicilin-resistant Staphylococcus aureus assessed as inhibition of bacterial growth incubated for 18 hrs by two fold broth microdilution assay
Escherichia coli [25] = test: Antibacterial activity against multi-drug resistant Escherichia coli clinical isolate 94393 assessed as inhibition of bacterial growth incubated for 18 hrs by two fold broth microdilution assay
Escherichia coli [26] = test: Antibacterial activity against multi-drug resistant Escherichia coli clinical isolate 107115 assessed as inhibition of bacterial growth incubated for 18 hrs by two fold broth microdilution assay
Pseudomonas aeruginosa [27] = test: Antibacterial activity against multi-drug resistant Pseudomonas aeruginosa clinical isolate 101243 assessed as inhibition of bacterial growth incubated for 18 hrs by two fold broth microdilution assay
Escherichia coli [28] = test: Antibacterial activity against multi-drug resistant Escherichia coli clinical isolate 94474 assessed as inhibition of bacterial growth incubated for 18 hrs by two fold broth microdilution assay
Enterococcus faecium [29] = test: Antibacterial activity against Enterococcus faecium 128149 assessed as inhibition of bacterial growth incubated for 18 hrs by two fold broth microdilution assay
Acinetobacter baumannii [30] = test: Antibacterial activity against multi-drug resistant Acinetobacter baumannii clinical isolate 110193 assessed as inhibition of bacterial growth incubated for 18 hrs by two fold broth microdilution assay
Escherichia coli [31] = test: Antibiotic adjuvant activity against Escherichia coli ATCC 25922 assessed as fold potentiation incubated for 18 hrs in presence of Rifampicin by two fold broth microdilution checkerboard assay

CC[C@H](C)CCCCC(=O)N[C@@H](CCN)C(=O)N[C@H](C(=O)N[C@@H](CCN)C(=O)N[C@H]1CCNC(=O)[C@H]([C@@H](C)O)NC(=O)[C@H](CCN)NC(=O)[C@H](CCN)NC(=O)[C@H](CC(C)C)NC(=O)[C@@H](Cc2ccccc2)NC(=O)[C@@H](CCN)NC1=O)[C@@H](C)O (X1-[Dab]T[Dab][Dab][dDab][dF]L[Dab][Dab]T; lactam 4-C)
Activity (Enterococcus faecium [1]): Active | Activity (Staphylococcus aureus [2]): Active | Activity (Enterococcus faecium [3]): Active

C[C@H]1c2cccc(O)c2C(=O)C2=C(O)[C@]3(O)C(=O)C(C(N)=O)=C(O)[C@@H](N(C)C)[C@@H]3[C@@H](O)[C@@H]21.O [DOXYCYCLINE]
MIC (Pseudomonas aeruginosa [4]): 64 µg/mL | MIC (Escherichia coli [5]): 64 µg/mL | MIC (Escherichia coli [6]): 128 µg/mL | MIC (Pseudomonas aeruginosa [7]): 256 µg/mL | MIC (Pseudomonas aeruginosa [8]): 512 µg/mL | MIC (Pseudomonas aeruginosa [9]): > 128 µg/mL | MIC (Pseudomonas aeruginosa [10]): > 128 µg/mL

NC[C@H]1O[C@H](O[C@H]2[C@H](OC(=O)Nc3ccccc3)[C@@H](O[C@H]3O[C@H](COC(=O)Nc4ccccc4)[C@@H](OC(=O)Nc4ccccc4)[C@H](N)[C@H]3OC(=O)Nc3ccccc3)[C@H](N)C[C@@H]2N)[C@H](N)C[C@@H]1OC(=O)Nc1ccccc1.O=C(O)C(F)(F)F
fold change (FC) (Acinetobacter baumannii [11]): 16 | fold change (FC) (Pseudomonas aeruginosa [12]): 1 | MIC (Acinetobacter baumannii [13]): > 128 µg/mL | MIC (Acinetobacter baumannii [14]): 0.0312 µg/mL | MIC (Escherichia coli [15]): 0.008 µg/mL | MIC (Pseudomonas aeruginosa [16]): 64 µg/mL | MIC (Escherichia coli [17]): 32 µg/mL

CO[C@H]1/C=C/O[C@@]2(C)Oc3c(C)c(O)c4c(O)c(c(/C=N/N5CCN(C)CC5)c(O)c4c3C2=O)NC(=O)/C(C)=C\C=C\[C@H](C)[C@H](O)[C@@H](C)[C@@H](O)[C@@H](C)[C@H](OC(C)=O)[C@@H]1C [RIFAMPIN]
MIC (Acinetobacter baumannii [18]): 2 µg/mL (≈ 2.43 µM) | MIC (Pseudomonas aeruginosa [4]): 16 µg/mL (≈ 19.4 µM) | MIC (Acinetobacter baumannii [19]): 4 µg/mL (≈ 4.86 µM) | MIC (Pseudomonas aeruginosa [20]): 16 µg/mL (≈ 19.4 µM) | MIC (Acinetobacter baumannii [21]): 2 µg/mL (≈ 2.43 µM) | MIC (Enterococcus faecium [22]): 4 µg/mL (≈ 4.86 µM) | MIC (Acinetobacter baumannii [23]): 8 µg/mL (≈ 9.72 µM) | MIC (Pseudomonas aeruginosa [7]): 16 µg/mL (≈ 19.4 µM) | MIC (Staphylococcus aureus [24]): 256 µg/mL (≈ 311 µM) | MIC (Escherichia coli [25]): 32 µg/mL (≈ 38.9 µM) | MIC (Escherichia coli [26]): 128 µg/mL (≈ 156 µM) | MIC (Pseudomonas aeruginosa [27]): 4 µg/mL (≈ 4.86 µM) | MIC (Pseudomonas aeruginosa [8]): 512 µg/mL (≈ 622 µM) | MIC (Escherichia coli [28]): 8 µg/mL (≈ 9.72 µM) | MIC (Enterococcus faecium [29]): 8 µg/mL (≈ 9.72 µM) | MIC (Acinetobacter baumannii [30]): 4 µg/mL (≈ 4.86 µM)

Cl.NC[C@H]1O[C@H](O[C@H]2[C@H](OCc3ccccc3)[C@@H](OCc3ccccc3)[C@H](N)C[C@@H]2N)[C@H](N)C[C@@H]1OCc1ccccc1
fold change (FC) (Acinetobacter baumannii [11]): 4 | fold change (FC) (Pseudomonas aeruginosa [12]): 4 | MIC (Acinetobacter baumannii [13]): > 128 µg/mL | MIC (Acinetobacter baumannii [14]): 1 µg/mL | MIC (Escherichia coli [15]): 0.0312 µg/mL | MIC (Pseudomonas aeruginosa [16]): > 128 µg/mL | MIC (Escherichia coli [17]): > 128 µg/mL | fold change (FC) (Escherichia coli [31]): 512

Cl.NC[C@H]1O[C@H](O[C@H]2[C@H](OCc3ccc(Cl)cc3)[C@@H](O[C@H]3O[C@H](COCc4ccc(Cl)cc4)[C@@H](OCc4ccc(Cl)cc4)[C@H](N)[C@H]3OCc3ccc(Cl)cc3)[C@H](N)C[C@@H]2N)[C@H](N)C[C@@H]1OCc1ccc(Cl)cc1
MIC (Acinetobacter baumannii [13]): > 128 µg/mL | MIC (Pseudomonas aeruginosa [16]): > 128 µg/mL | MIC (Escherichia coli [17]): > 128 µg/mL

COLISTIN
MIC (Acinetobacter baumannii [13]): 0.5 µg/mL | MIC (Pseudomonas aeruginosa [16]): 1 µg/mL | MIC (Escherichia coli [17]): 0.5 µg/mL

NC[C@H]1O[C@H](O[C@H]2[C@H](OC(=O)Nc3ccc(Cl)cc3)[C@@H](O[C@H]3O[C@H](COC(=O)Nc4ccc(Cl)cc4)[C@@H](OC(=O)Nc4ccc(Cl)cc4)[C@H](N)[C@H]3OC(=O)Nc3ccc(Cl)cc3)[C@H](N)C[C@@H]2N)[C@H](N)C[C@@H]1OC(=O)Nc1ccc(Cl)cc1.O=C(O)C(F)(F)F
fold change (FC) (Acinetobacter baumannii [11]): 16 | fold change (FC) (Pseudomonas aeruginosa [12]): 1 | MIC (Acinetobacter baumannii [13]): 32 µg/mL | MIC (Acinetobacter baumannii [14]): 0.004 µg/mL | MIC (Escherichia coli [15]): 0.5 µg/mL | MIC (Pseudomonas aeruginosa [16]): 64 µg/mL | MIC (Escherichia coli [17]): 32 µg/mL
